Assay results published in PMC3946379 (Archives of biochemistry and biophysics, 2013).

Target: Aspartate aminotransferase (AAT) (Escherichia coli, UniProt P00509)
Assay: N-15 NMR of crystalline enzyme
Type: binding
Settings: PLP form, low pH; closed conformation; own earlier work reviewed

Chain of Aspartate aminotransferase (AAT) (P00509 whole entry): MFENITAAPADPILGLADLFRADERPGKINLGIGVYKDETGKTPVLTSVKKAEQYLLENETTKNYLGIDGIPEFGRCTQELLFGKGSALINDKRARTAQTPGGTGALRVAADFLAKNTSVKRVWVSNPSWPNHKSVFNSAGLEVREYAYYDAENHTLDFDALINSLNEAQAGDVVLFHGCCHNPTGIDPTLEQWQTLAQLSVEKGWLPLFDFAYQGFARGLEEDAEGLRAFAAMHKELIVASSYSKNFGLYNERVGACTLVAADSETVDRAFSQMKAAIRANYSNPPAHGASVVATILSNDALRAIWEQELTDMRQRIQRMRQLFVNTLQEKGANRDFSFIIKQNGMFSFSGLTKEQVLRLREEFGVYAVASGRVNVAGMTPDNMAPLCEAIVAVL

With `O=C(O)/C=C\C(=O)O` [maleate] the “N-15 NMR of crystalline enzyme” value was “In crystalline samples of both the unliganded and maleate-liganded enzyme forms at low pH”.
